{
  "source": "patent US10023557B2",
  "about": "(LifeSci Pharmaceuticals, Inc., priority 2015, dated 2018)",
  "target": "human plasma kallikrein (Homo sapiens (Human), UniProt P03952)",
  "sequence (P03952 391-638)": "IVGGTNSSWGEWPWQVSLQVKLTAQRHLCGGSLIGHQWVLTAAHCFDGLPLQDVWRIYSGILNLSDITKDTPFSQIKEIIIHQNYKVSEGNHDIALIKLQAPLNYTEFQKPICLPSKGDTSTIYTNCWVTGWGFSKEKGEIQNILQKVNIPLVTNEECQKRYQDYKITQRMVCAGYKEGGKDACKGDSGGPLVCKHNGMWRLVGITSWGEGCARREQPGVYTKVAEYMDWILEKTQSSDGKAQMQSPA",
  "sequence (P03952 20-390 partner)": "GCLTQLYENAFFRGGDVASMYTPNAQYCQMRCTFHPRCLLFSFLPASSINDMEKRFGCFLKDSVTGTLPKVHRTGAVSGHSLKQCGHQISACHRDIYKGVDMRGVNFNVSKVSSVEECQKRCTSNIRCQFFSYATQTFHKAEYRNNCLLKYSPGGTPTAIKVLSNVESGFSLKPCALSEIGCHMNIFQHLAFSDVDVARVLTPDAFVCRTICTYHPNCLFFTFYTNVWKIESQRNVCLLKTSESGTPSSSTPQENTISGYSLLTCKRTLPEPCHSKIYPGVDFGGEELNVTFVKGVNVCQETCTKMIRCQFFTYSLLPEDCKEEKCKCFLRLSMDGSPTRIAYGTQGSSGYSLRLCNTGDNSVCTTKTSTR",
  "test": "In vitro enzyme inhibition of human plasma kallikrein (PFR-AMC cleavage)",
  "assay_type": "biochemical",
  "settings": "Pro-Phe-Arg-AMC substrate, 37° C., read-out: hPK IC50",
  "method": "The ability of the compounds disclosed herein to inhibit human plasma kallikrein activity was quantified according to the procedures below.\nA 10 mM solution of the test compound was made in DMSO. […] A control tube containing only DMSO is included. 16 μL of each compound test solution was combined with 384 μL of assay buffer (50 mM Tris-HCl pH 7.5, 150 mM NaCl, 0.01% Triton X-100) to yield a “4× test compound buffer stock”.\nThese solutions are hereby referred to as 4× hPK and 2×PFR-AMC, respectively.\n50 μL was removed from this mixture and placed into duplicate wells on a Microfluor 1Black U-bottom microtiter plate (Thermo Scientific). This plate was incubated for 5 minutes at 37° C. To each well, 50 μL of pre-warmed 2×PFR-AMC was added to start the enzymatic reaction. Cleavage of PFR-AMC was monitored in a Biotek Synergy H4 reader set at 37° C. Readings are taken every 43 seconds for 1 hour. […] The IC50 is calculated using the Gen5 (Biotek Instruments).\nThe ability of the compounds in Table 3 to inhibit human plasma kallikrein activity was determined.",
  "note": "pIC50: −log10 of the molar value.",
  "data": [
    {"compound": "Cc1nc(NCCO)ccc1CNC(=O)c1ccnc(Cc2ccc3ncc(Cl)cc3c2)c1", "note": "[Example 252, 2-((3-chloroquinolin-6-yl)methyl)-N-((6-((2-hydroxyethyl)amino)-2-methylpyridin-3-yl)methyl)isonicotinamide]", "values": [
      {"measurement": "pIC50", "value": "< 5.00"}
    ]},
    {"compound": "O=C(NCc1cnc2ncc(Cl)cn12)c1ccnc(Cc2ccc3ncc(Cl)cc3c2)c1", "note": "[Example 256, N-((6-chloroimidazo[1,2-a]pyrimidin-3-yl)methyl)-2-((3-chloroquinolin-6-yl)methyl)isonicotinamide]", "values": [
      {"measurement": "pIC50", "value": "< 5.00"}
    ]},
    {"compound": "Cc1cc(N)nc(C)c1CNC(=O)c1ccnc(Cc2ccc3ncc(CO)cc3c2)c1", "note": "[Example 257, N-((6-amino-2,4-dimethylpyridin-3-yl)methyl)-2-((3-(hydroxymethyl)quinolin-6-yl)methyl)isonicotinamide]", "values": [
      {"measurement": "pIC50", "value": "> 7.00"}
    ]},
    {"compound": "Cc1nc(N)ccc1CNC(=O)c1ccnc(Cc2ccc3ncc(CO)cc3c2)c1", "note": "[Example 258, N-((6-amino-2-methylpyridin-3-yl)methyl)-2-((3-(hydroxymethyl)quinolin-6-yl)methyl)isonicotinamide]", "values": [
      {"measurement": "pIC50", "value": "6.00 to 7.00"}
    ]},
    {"compound": "O=C(NCc1cc2cc[nH]c2cc1F)c1ccnc(Cc2ccc3ncc(Cl)cc3c2)c1", "note": "[Example 259, 2-((3-chloroquinolin-6-yl)methyl)-N-((6-fluoro-1H-indol-5-yl)methyl)isonicotinamide]", "values": [
      {"measurement": "pIC50", "value": "6.00 to 7.00"}
    ]},
    {"compound": "Cc1n[nH]c2ccc(CNC(=O)c3ccnc(Cc4ccc5ncc(Cl)cc5c4)c3)cc12", "note": "[Example 261, 2-((3-chloroquinolin-6-yl)methyl)-N-((3-methyl-1H-indazol-5-yl)methyl)isonicotinamide]", "values": [
      {"measurement": "pIC50", "value": "5.00 to 6.00"}
    ]},
    {"compound": "Cc1cc(N)nc(C)c1CNC(=O)c1ccnc(Cc2ccc3ncc(C(C)O)cc3c2)c1", "note": "(centres unmarked) [Example 262, N-((6-amino-2,4-dimethylpyridin-3-yl)methyl)-2-((3-(1-hydroxyethyl)quinolin-6-yl)methyl)isonicotinamide]", "values": [
      {"measurement": "pIC50", "value": "> 7.00"}
    ]},
    {"compound": "Cc1nc(N)ccc1CNC(=O)c1ccnc(Cc2ccc3ncc(C(C)O)cc3c2)c1", "note": "(centres unmarked) [Example 263, N-((6-amino-2-methylpyridin-3-yl)methyl)-2-((3-(1-hydroxyethyl)quinolin-6-yl)methyl)isonicotinamide]", "values": [
      {"measurement": "pIC50", "value": "6.00 to 7.00"}
    ]},
    {"compound": "COc1cnc2ccc(Cc3cc(C(=O)NCc4ccc(N)nc4C)ccn3)cc2c1", "note": "[Example 265, N-(6-amino-2-methyl-pyridin-3-ylmethyl)-2-(3-methoxy-quinolin-6-ylmethyl)-isonicotinamide]", "values": [
      {"measurement": "pIC50", "value": "> 7.00"}
    ]},
    {"compound": "Cc1n[nH]c2ncc(CNC(=O)c3ccnc(Cc4ccc5ncc(Cl)cc5c4)c3)cc12", "note": "[Example 266, 2-((3-chloroquinolin-6-yl)methyl)-N-((3-methyl-1H-pyrazolo[3,4-b]pyridin-5-yl)methyl)isonicotinamide]", "values": [
      {"measurement": "pIC50", "value": "5.00 to 6.00"}
    ]},
    {"compound": "O=C(NCc1ccc2[nH]nc(C(F)(F)F)c2c1)c1ccnc(Cc2ccc3ncc(Cl)cc3c2)c1", "note": "[Example 267, 2-((3-chloroquinolin-6-yl)methyl)-N-((3-(trifluoromethyl)-1H-indazol-5-yl)methyl)isonicotinamide]", "values": [
      {"measurement": "pIC50", "value": "5.00 to 6.00"}
    ]},
    {"compound": "O=C(NCc1c[nH]c2ccc(Cl)cc12)c1ccnc(Cc2ccc3ncc(Cl)cc3c2)c1", "note": "[Example 268, N-((5-chloro-1H-indol-3-yl)methyl)-2-((3-chloroquinolin-6-yl)methyl)isonicotinamide]", "values": [
      {"measurement": "pIC50", "value": "6.00 to 7.00"}
    ]},
    {"compound": "O=C(NCc1c[nH]c2ncc(Cl)cc12)c1ccnc(Cc2ccc3ncc(Cl)cc3c2)c1", "note": "[Example 269, N-((5-chloro-1H-pyrrolo[2,3-b]pyridin-3-yl)methyl)-2-((3-chloroquinolin-6-yl)methyl)isonicotinamide]", "values": [
      {"measurement": "pIC50", "value": "5.00 to 6.00"}
    ]},
    {"compound": "Cc1[nH]c2ccc(Cl)cc2c1CNC(=O)c1ccnc(Cc2ccc3ncc(Cl)cc3c2)c1", "note": "[Example 270, N-((5-chloro-2-methyl-1H-indol-3-yl)methyl)-2-((3-chloroquinolin-6-yl)methyl)isonicotinamide]", "values": [
      {"measurement": "pIC50", "value": "6.00 to 7.00"}
    ]},
    {"compound": "O=C(NCc1cnc2[nH]nc(C(F)(F)F)c2c1)c1ccnc(Cc2ccc3ncc(Cl)cc3c2)c1", "note": "[Example 271, 2-((3-chloroquinolin-6-yl)methyl)-N-((3-(trifluoromethyl)-1H-pyrazolo[3,4-b]pyridin-5-yl)methyl)isonicotinamide]", "values": [
      {"measurement": "pIC50", "value": "6.00 to 7.00"}
    ]},
    {"compound": "Cc1nc(N)ccc1CNC(=O)c1ccnc(Cc2cc(-c3nnn[nH]3)c3ncc(Cl)cc3c2)c1", "note": "[Example 273, N-((6-amino-2-methylpyridin-3-yl)methyl)-2-((3-chloro-8-(1H-tetrazol-5-yl)quinolin-6-yl)methyl)isonicotinamide]", "values": [
      {"measurement": "pIC50", "value": "6.00 to 7.00"}
    ]},
    {"compound": "Cc1cc(N)nc(C)c1CNC(=O)c1ccnc(C(=O)c2ccc3ncc(Cl)cc3c2)c1", "note": "[Example 274, N-((6-amino-2,4-dimethylpyridin-3-yl)methyl)-2-(3-chloroquinoline-6-carbonyl)isonicotinamide]", "values": [
      {"measurement": "pIC50", "value": "6.00 to 7.00"}
    ]},
    {"compound": "CCc1cnc2ccc(Cc3cc(C(=O)NCc4cc5c(Cl)c[nH]c5cc4F)ccn3)cc2c1", "note": "[Example 280, N-((3-chloro-6-fluoro-1H-indol-5-yl)methyl)-2-((3-ethylquinolin-6-yl)methyl)isonicotinamide]", "values": [
      {"measurement": "pIC50", "value": "> 7.00"}
    ]},
    {"compound": "CCc1cnc2ccc(Cc3cc(C(=O)NCc4cnc5[nH]cc(Cl)c5c4)ccn3)cc2c1", "note": "[Example 281, N-((3-chloro-1H-pyrrolo[2,3-b]pyridin-5-yl)methyl)-2-((3-ethylquinolin-6-yl)methyl)isonicotinamide]", "values": [
      {"measurement": "pIC50", "value": "> 7.00"}
    ]},
    {"compound": "CCc1cnc2ccc(Cc3cc(C(=O)NCc4ccc5[nH]cc(Cl)c5c4F)ccn3)cc2c1", "note": "[Example 282, N-((3-chloro-4-fluoro-1H-indol-5-yl)methyl)-2-((3-ethylquinolin-6-yl)methyl)isonicotinamide]", "values": [
      {"measurement": "pIC50", "value": "> 7.00"}
    ]},
    {"compound": "CCc1cnc2ccc(Cc3cc(C(=O)NCc4n[nH]c5ccc(Cl)cc45)ccn3)cc2c1", "note": "[Example 284, N-((5-chloro-1H-indazol-3-yl)methyl)-2-((3-ethylquinolin-6-yl)methyl)isonicotinamide]", "values": [
      {"measurement": "pIC50", "value": "> 7.00"}
    ]},
    {"compound": "CCc1cnc2ccc(Cc3cc(C(=O)NCc4ccc(N)nc4C)ccn3)cc2c1", "note": "[Example 285, N-((6-amino-2-methylpyridin-3-yl)methyl)-2-((3-ethylquinolin-6-yl)methyl)isonicotinamide]", "values": [
      {"measurement": "pIC50", "value": "> 7.00"}
    ]},
    {"compound": "O=C(NCc1cc2c(Cl)c[nH]c2cc1F)c1ccnc(Cc2ccc3ncc(N4CCOCC4)cc3c2)c1", "note": "[Example 292, N-((3-chloro-6-fluoro-1H-indol-5-yl)methyl)-2-((3-morpholinoquinolin-6-yl)methyl)isonicotinamide]", "values": [
      {"measurement": "pIC50", "value": "5.00 to 6.00"}
    ]},
    {"compound": "Nc1nccc2cc(CNC(=O)c3ccnc(Cc4ccc5ncc(N6CCOCC6)cc5c4)c3)ccc12", "note": "[Example 293, N-((1-aminoisoquinolin-6-yl)methyl)-2-((3-morpholinoquinolin-6-yl)methyl)isonicotinamide]", "values": [
      {"measurement": "pIC50", "value": "5.00 to 6.00"}
    ]},
    {"compound": "O=C(NCc1cnc2[nH]cc(Cl)c2c1)c1ccnc(Cc2ccc3ncc(N4CCOCC4)cc3c2)c1", "note": "[Example 294, N-((3-chloro-1H-pyrrolo[2,3-b]pyridin-5-yl)methyl)-2-((3-morpholinoquinolin-6-yl)methyl)isonicotinamide]", "values": [
      {"measurement": "pIC50", "value": "5.00 to 6.00"}
    ]},
    {"compound": "O=C(NCc1n[nH]c2ccc(Cl)cc12)c1ccnc(Cc2ccc3ncc(N4CCOCC4)cc3c2)c1", "note": "[Example 295, N-((5-chloro-1H-indazol-3-yl)methyl)-2-((3-morpholinoquinolin-6-yl)methyl)isonicotinamide]", "values": [
      {"measurement": "pIC50", "value": "5.00 to 6.00"}
    ]}
  ]
}
